Measured values: ChEMBL document CHEMBL6153041, “Discovery of High-Affinity SMARCA2/4 Bromodomain Ligands and Development of Potent and Exceptionally Selective SMARCA2 PROTAC Degraders” (J Med Chem, 2025)

Experiments:
[1] = target: SWI/SNF-related matrix-associated actin-dependent regulator of chromatin subfamily A member 2 (Homo sapiens, UniProt P51531); experiment: Inhibition of recombinant human GST-tagged SMARCA2 bromodomain measured after 120 mins incubation by TR-FRET assay
[2] = target: SWI/SNF-related matrix-associated actin-dependent regulator of chromatin subfamily A member 4 (Homo sapiens, UniProt P51532); experiment: Inhibition of recombinant human GST-tagged SMARCA4 bromodomain measured after 120 mins incubation by TR-FRET assay
[3] = target: T1, von Hippel-Lindau disease tumor suppressor/SWI/SNF-related matrix-associated actin-dependent regulator of chromatin subfamily A member 2 (Homo sapiens, UniProt P51531+P40337); experiment: PROTAC activity at VHL1/SMARCA2 in human genetically modified Hela cells assessed as degradation measured after 24 hrs incubation by Nano-Glo HiBiT Lytic Detection Assay; format: cell-based
Target sequence in this assay (P51531 whole entry): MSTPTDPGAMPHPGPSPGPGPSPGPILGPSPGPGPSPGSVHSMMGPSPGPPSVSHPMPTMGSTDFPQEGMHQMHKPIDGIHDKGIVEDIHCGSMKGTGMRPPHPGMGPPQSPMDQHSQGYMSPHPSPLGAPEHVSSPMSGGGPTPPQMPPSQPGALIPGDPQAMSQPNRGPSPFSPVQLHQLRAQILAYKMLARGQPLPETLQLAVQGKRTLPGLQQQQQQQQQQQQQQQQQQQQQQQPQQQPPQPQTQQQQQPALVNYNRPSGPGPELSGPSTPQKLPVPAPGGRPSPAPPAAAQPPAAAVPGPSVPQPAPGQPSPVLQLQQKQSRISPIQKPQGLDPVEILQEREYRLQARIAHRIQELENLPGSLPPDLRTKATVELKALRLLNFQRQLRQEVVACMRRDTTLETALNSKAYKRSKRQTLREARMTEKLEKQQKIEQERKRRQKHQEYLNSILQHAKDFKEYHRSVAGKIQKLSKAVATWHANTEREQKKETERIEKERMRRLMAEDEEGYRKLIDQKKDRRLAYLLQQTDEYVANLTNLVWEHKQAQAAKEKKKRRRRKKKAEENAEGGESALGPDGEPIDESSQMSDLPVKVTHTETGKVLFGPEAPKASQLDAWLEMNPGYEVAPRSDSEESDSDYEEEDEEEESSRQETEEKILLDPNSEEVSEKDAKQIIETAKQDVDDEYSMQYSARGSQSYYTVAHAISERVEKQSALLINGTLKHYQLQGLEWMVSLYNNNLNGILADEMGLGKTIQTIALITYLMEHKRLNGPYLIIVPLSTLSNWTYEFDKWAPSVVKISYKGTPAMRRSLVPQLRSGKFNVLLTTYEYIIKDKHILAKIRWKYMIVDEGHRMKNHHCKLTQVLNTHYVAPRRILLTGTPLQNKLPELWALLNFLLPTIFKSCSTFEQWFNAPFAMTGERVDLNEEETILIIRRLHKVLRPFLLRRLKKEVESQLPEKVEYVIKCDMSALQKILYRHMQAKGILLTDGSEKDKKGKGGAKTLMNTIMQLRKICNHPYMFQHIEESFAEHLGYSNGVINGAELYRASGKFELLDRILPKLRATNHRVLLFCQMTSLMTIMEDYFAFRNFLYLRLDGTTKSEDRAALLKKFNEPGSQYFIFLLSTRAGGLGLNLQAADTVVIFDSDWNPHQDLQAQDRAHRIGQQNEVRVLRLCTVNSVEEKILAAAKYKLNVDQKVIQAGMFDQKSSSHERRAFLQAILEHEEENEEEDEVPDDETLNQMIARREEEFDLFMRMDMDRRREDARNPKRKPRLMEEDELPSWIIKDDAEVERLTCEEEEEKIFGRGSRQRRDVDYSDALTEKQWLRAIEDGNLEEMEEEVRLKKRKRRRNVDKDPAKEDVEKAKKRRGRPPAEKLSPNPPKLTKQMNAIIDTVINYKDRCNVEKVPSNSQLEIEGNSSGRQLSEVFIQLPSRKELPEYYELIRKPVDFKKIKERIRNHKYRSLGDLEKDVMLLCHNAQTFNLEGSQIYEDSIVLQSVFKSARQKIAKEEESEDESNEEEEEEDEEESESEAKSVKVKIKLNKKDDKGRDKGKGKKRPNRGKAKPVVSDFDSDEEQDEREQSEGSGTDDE
Target sequence in this assay (P40337 whole entry): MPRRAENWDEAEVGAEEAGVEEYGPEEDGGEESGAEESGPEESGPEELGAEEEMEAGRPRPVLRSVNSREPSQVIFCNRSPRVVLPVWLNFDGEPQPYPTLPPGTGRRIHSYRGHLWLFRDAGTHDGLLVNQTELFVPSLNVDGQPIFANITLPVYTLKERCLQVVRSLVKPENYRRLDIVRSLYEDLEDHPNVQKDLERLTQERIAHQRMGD

[4] = target: T1, von Hippel-Lindau disease tumor suppressor/SWI/SNF-related matrix-associated actin-dependent regulator of chromatin subfamily A member 2; experiment: PROTAC activity at VHL1/SMARCA2 in human genetically modified Hela cells assessed as maximal degradation measured after 24 hrs incubation by Nano-Glo HiBiT Lytic Detection Assay relative to control; format: cell-based
Target sequence in this assay (P40337 whole entry, looked up): as the sequence (P40337 whole entry) above
Target sequence in this assay (P51531 whole entry, looked up): as the sequence (P51531 whole entry) above

[5] = target: T2, von Hippel-Lindau disease tumor suppressor/SWI/SNF-related matrix-associated actin-dependent regulator of chromatin subfamily A member 4 (Homo sapiens, UniProt P51532+P40337); experiment: PROTAC activity at VHL1/SMARCA4 in human genetically modified Hela cells assessed as degradation measured after 24 hrs incubation by Nano-Glo HiBiT Lytic Detection Assay; format: cell-based
Target sequence in this assay (P51532 whole entry): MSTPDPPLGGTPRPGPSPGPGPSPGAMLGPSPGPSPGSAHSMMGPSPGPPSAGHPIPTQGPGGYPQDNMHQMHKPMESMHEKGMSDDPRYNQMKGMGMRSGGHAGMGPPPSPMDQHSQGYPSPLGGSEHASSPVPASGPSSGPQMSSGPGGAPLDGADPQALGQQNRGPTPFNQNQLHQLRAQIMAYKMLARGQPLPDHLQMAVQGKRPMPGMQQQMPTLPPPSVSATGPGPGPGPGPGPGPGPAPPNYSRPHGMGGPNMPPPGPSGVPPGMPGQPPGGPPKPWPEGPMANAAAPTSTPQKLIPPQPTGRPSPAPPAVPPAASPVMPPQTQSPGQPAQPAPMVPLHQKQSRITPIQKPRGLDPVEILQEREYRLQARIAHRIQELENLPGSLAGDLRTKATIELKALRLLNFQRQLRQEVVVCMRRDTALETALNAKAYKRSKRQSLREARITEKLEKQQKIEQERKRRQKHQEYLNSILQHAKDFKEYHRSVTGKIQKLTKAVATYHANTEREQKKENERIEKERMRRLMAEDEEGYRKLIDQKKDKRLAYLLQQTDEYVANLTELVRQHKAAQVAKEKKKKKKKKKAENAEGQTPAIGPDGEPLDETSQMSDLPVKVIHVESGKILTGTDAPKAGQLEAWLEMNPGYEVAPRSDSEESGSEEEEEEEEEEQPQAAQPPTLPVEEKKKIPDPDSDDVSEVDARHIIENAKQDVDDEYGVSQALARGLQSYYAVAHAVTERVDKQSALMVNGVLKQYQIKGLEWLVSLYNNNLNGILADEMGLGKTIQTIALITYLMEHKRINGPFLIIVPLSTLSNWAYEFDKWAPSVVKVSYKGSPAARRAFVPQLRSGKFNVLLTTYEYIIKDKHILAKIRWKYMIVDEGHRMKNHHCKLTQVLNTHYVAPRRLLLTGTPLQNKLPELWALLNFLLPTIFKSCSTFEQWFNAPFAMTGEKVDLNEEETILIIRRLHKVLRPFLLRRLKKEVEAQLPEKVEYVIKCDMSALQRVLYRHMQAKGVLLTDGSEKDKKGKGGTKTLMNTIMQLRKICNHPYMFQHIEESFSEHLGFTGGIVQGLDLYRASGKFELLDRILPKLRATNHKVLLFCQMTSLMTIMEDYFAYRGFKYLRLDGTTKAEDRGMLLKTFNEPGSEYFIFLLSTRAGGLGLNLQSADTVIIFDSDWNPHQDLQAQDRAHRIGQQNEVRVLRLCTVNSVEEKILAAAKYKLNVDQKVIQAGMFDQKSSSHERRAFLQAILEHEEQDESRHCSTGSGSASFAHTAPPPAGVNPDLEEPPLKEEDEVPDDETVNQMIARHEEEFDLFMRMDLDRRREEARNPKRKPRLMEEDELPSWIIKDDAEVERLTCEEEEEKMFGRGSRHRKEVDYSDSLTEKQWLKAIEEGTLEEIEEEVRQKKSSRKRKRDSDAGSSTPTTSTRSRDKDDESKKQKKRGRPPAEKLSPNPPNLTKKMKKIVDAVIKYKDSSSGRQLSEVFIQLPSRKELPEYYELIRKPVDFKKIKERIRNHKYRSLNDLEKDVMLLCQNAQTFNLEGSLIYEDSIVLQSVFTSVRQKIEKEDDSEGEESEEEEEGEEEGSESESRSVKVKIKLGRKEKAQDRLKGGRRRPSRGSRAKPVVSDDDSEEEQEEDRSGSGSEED
Target sequence in this assay (P40337 whole entry): as the sequence (P40337 whole entry) above

[6] = target: T2, von Hippel-Lindau disease tumor suppressor/SWI/SNF-related matrix-associated actin-dependent regulator of chromatin subfamily A member 4; experiment: PROTAC activity at VHL1/SMARCA4 in human genetically modified Hela cells assessed as maximal degradation measured after 24 hrs incubation by Nano-Glo HiBiT Lytic Detection Assay relative to control; format: cell-based
Target sequence in this assay (P40337 whole entry, looked up): as the sequence (P40337 whole entry) above
Target sequence in this assay (P51532 whole entry, looked up): as the sequence (P51532 whole entry) above

HeLa = experiment: Selectivity ratio, ratio of DC50 for VHL1/SMARCA4 in human genetically modified Hela cells to VHL1/SMARCA2 in human genetically modified Hela cells; format: cell-based

Chain of SWI/SNF-related matrix-associated actin-dependent regulator of chromatin subfamily A member 2 (P51531 whole entry): as the sequence (P51531 whole entry) above
Chain of SWI/SNF-related matrix-associated actin-dependent regulator of chromatin subfamily A member 4 (P51532 whole entry): as the sequence (P51532 whole entry) above

SMILES	IC50 [1] [nM]	IC50 [2] [nM]	DC50 [3] [nM]	Emax [4] [%]	DC50 [5] [nM]	Emax [6] [%]	Ratio (HeLa)
O=c1nc2n(c3cccc(Cl)c13)-c1ccc(C3CCNCC3)cc1C21CCCCC1	53	–	–	–	–	–	–
Cc1ncsc1-c1ccc([C@H](C)NC(=O)[C@@H]2C[C@@H](O)CN2C(=O)[C@@H](c2cc(N3CCC(CN4CCC(O[C@H]5C[C@H](Oc6cc(CN7C8CCC7CN(c7cc(-c9ccccc9O)nnc7N)C8)ccn6)C5)CC4)CC3)no2)C(C)C)cc1	–	–	0.1	97	1.3	96	13
O=c1nc2n(c3cccc(Cl)c13)-c1cc(C3CCNCC3)ccc1C21CCOCC1	630	1150	–	–	–	–	–
Cc1ncsc1-c1ccc([C@H](C)NC(=O)[C@@H]2C[C@@H](O)CN2C(=O)[C@@H](NC(=O)[C@H]2CC[C@H](CN3CCC(c4ccc5c(c4)C4(CCCCC4)c4nc(=O)c6c(Br)cccc6n4-5)CC3)CC2)C(C)(C)C)cc1	–	–	3	93	162	58	54
O=c1nc2n(c3cccc(Cl)c13)-c1ccc(C3CCNCC3)cc1C21CCCCCC1	153	129	–	–	–	–	–
Cc1ncsc1-c1ccc([C@H](C)NC(=O)[C@@H]2C[C@@H](O)CN2C(=O)[C@@H](NC(=O)[C@H]2CC[C@H](CN3CCC(c4ccc5c(c4)C4(CCCCC4)c4nc(=O)c6c(Cl)cccc6n4-5)CC3)CC2)C(C)(C)C)cc1	–	–	–	92	> 10000	48	> 1500
Cc1ncsc1-c1ccc([C@H](C)NC(=O)[C@@H]2C[C@@H](O)CN2C(=O)[C@@H](NC(=O)[C@H]2CC[C@H](CN3CC4(CCC(n5cc(-c6cc(-c7ccccc7O)nnc6N)cn5)CC4)C3)CC2)C(C)(C)C)cc1	–	–	23	93	895	52	39
Cc1ncsc1-c1ccc([C@H](C)NC(=O)[C@@H]2C[C@@H](O)CN2C(=O)[C@@H](NC(=O)CCN2CCC(c3ccc4c(c3)C3(CCCCC3)c3nc(=O)c5c(Cl)cccc5n3-4)CC2)C(C)(C)C)cc1	–	–	99	93	543	77	6
Cc1ncsc1-c1ccc([C@H](CCCCCN2CCC(c3ccc4c(c3)-n3c(nc(=O)c5c(Cl)cccc53)C43CCCCC3)CC2)NC(=O)[C@@H]2C[C@@H](O)CN2C(=O)[C@@H](NC(=O)C2(F)CC2)C(C)(C)C)cc1	–	–	7.5	92	22	87	3
Cc1ncsc1-c1ccc([C@H](CCCCCN2CCC(c3ccc4c(c3)C3(CCCCC3)c3nc(=O)c5c(Br)cccc5n3-4)CC2)NC(=O)[C@@H]2C[C@@H](O)CN2C(=O)[C@@H](NC(=O)C2(F)CC2)C(C)(C)C)cc1	–	–	0.24	97	1.7	97	7
Cc1ncsc1-c1ccc([C@H](C)NC(=O)[C@@H]2C[C@@H](O)CN2C(=O)[C@@H](NC(=O)[C@H]2CC[C@H](CN3CCC(c4ccc5c(c4)-n4c(nc(=O)c6c(Br)cccc64)C54CCCCC4)CC3)CC2)C(C)(C)C)cc1	–	–	14	88	> 10000	37	> 700
Cc1ncsc1-c1ccc([C@H](C)NC(=O)[C@@H]2C[C@@H](O)CN2C(=O)[C@@H](NC(=O)CCCCN2CCC(c3ccc4c(c3)C3(CCCCC3)c3nc(=O)c5c(Cl)cccc5n3-4)CC2)C(C)(C)C)cc1	–	–	105	88	> 10000	> 39	> 950
CCc1cccc2c1c(=O)nc1n2-c2cc(C3CCNCC3)ccc2C12CCCCC2	3400	2840	–	–	–	–	–
Cc1ncsc1-c1ccc([C@H](C)NC(=O)[C@@H]2C[C@@H](O)CN2C(=O)[C@@H](NC(=O)CCCCCN2CCC(c3ccc4c(c3)C3(CCCCC3)c3nc(=O)c5c(Cl)cccc5n3-4)CC2)C(C)(C)C)cc1	–	–	29	94	697	55	24
Cc1ncsc1-c1ccc([C@H](C)NC(=O)[C@@H]2C[C@@H](O)CN2C(=O)[C@@H](NC(=O)CCCN2CCC(c3ccc4c(c3)C3(CCCCC3)c3nc(=O)c5c(Cl)cccc5n3-4)CC2)C(C)(C)C)cc1	–	–	61	87	7000	70	115
Cc1ncsc1-c1ccc([C@H](CCCCCN2CCC(c3ccc4c(c3)-n3c(nc(=O)c5c(Br)cccc53)C43CCCCC3)CC2)NC(=O)[C@@H]2C[C@@H](O)CN2C(=O)[C@@H](NC(=O)C2(F)CC2)C(C)(C)C)cc1	–	–	3	95	84	93	28
Cc1ncsc1-c1ccc([C@H](C)NC(=O)[C@@H]2C[C@@H](O)CN2C(=O)[C@@H](NC(=O)CN2CCC(c3ccc4c(c3)C3(CCCCC3)c3nc(=O)c5c(Cl)cccc5n3-4)CC2)C(C)(C)C)cc1	–	–	5.3	97	8.7	97	2

Now from value to compound, other results behind:

IC50 [1] [nM]	IC50 [2] [nM]	SMILES	DC50 [3] [nM]	Emax [4] [%]	DC50 [5] [nM]	Emax [6] [%]	Ratio (HeLa)
> 10000	> 10000	O=c1nc2n(c3ccnc(O)c13)-c1cc(C3CCNCC3)ccc1C21CCCCC1	–	–	–	–	–
538	612	O=c1nc2n(c3cccc(Cl)c13)-c1ccc(C3CCNCC3)cc1C21CCOCC1	–	–	–	–	–
> 10000	> 10000	O=c1nc2n(c3nccc(O)c13)-c1cc(C3CCNCC3)ccc1C21CCCCC1	–	–	–	–	–
45	83	O=c1nc2n(C3CCCC3)c3cc(C4CCNCC4)ccc3n2c2cccc(Br)c12	–	–	–	–	–
3070	1440	O=c1nc2n(c3ccccc13)-c1cc(C3CCNCC3)ccc1C21CCCCC1	–	–	–	–	–
62	51	O=c1nc2n(c3cccc(Br)c13)-c1ccc(C3CCNCC3)cc1C21CCCC1	–	–	–	–	–
56	55	O=c1nc2n(c3cccc(Cl)c13)-c1ccc(C3CCNCC3)cc1C21CCCC1	–	–	–	–	–
64	90	O=c1nc2n(c3cccc(Br)c13)-c1cc(C3CCNCC3)ccc1C21CCCCC1	–	–	–	–	–
106	133	O=c1nc2n(c3cccc(Cl)c13)-c1cc(C3CCNCC3)ccc1C21CCCC1	–	–	–	–	–
30	38	O=c1nc2n(c3cccc(Br)c13)-c1ccc(C3CCNCC3)cc1C21CCCCC1	–	–	–	–	–
3450	3340	O=c1nc2n(c3cccc(Cl)c13)-c1ccc(C3CCNCC3)cc1C21CCNCC1	–	–	–	–	–
4520	3210	O=c1nc2n(c3cccc(O)c13)-c1cc(C3CCNCC3)ccc1C21CCCCC1	–	–	–	–	–
